Values of other authors, collected in EP1249231B1, “Pharmaceutical formulations comprising anti-inflammatory compounds and use thereof” (VESIFACT AG, priority 2001, dated 2002).

Settings: free acid; background statement

- Löslichkeit in Wasser und im sauren Milieu des Magensaftes: schlecht löslich
Compound: CC(C)Cc1ccc(C(C)C(=O)O)cc1 (stereo not shown) [Ibuprofen]
